Measured values published in ChEMBL document CHEMBL3046346, “Synthesis and analgesic, anti-inflammatory activities of 3-(3-methoxyphenyl)-2-substituted amino-quinazolin-4(3H)-ones” (Med Chem Res, 2011).

Tests used:
Rattus norvegicus [1] = experiment: Gastrointestinal toxicity in fasted Rattus norvegicus Wistar albino (rat) assessed as ulcer index at 20 mg/kg, ip measured after 4 hr; assay type: organism-based; set-up: dose 20 mg/kg, route intraperitoneal; settings: in vivo
Rattus norvegicus [2] = experiment: Anti-inflammatory activity in Rattus norvegicus (rat) assessed as inhibition of carrageenan-induced paw edema at 10 mg/kg, po measured at 3 hr; assay type: functional
Rattus norvegicus [3] = experiment: Anti-inflammatory activity in Rattus norvegicus (rat) assessed as inhibition of carrageenan-induced paw edema at 10 mg/kg, po measured at 2 hr; assay type: functional
Rattus norvegicus [4] = experiment: Anti-inflammatory activity in Rattus norvegicus (rat) assessed as inhibition of carrageenan-induced paw edema at 10 mg/kg, po measured at 1 hr; assay type: functional
Rattus norvegicus [5] = experiment: Anti-inflammatory activity in Rattus norvegicus (rat) assessed as inhibition of carrageenan-induced paw edema at 10 mg/kg, po measured at 30 min; assay type: functional; settings: 0.5 h
Mus musculus [6] = experiment: […] activity in Mus musculus Wistar albino (mouse) at 10 mg/kg, po after 3 hr by tail-flick test; assay type: functional
Mus musculus [7] = experiment: […] activity in Mus musculus Wistar albino (mouse) at 10 mg/kg, po after 2 hr by tail-flick test; assay type: functional
Mus musculus [8] = experiment: […] activity in Mus musculus Wistar albino (mouse) at 10 mg/kg, po after 1 hr by tail-flick test; assay type: functional
Mus musculus [9] = experiment: […] activity in Mus musculus Wistar albino (mouse) at 10 mg/kg, po after 30 min by tail-flick test; assay type: functional

Compound	UI (Rattus norvegicus [1])	inhibition in vivo at 10 mg/kg (Rattus norvegicus [2]) [%]	inhibition in vivo at 10 mg/kg (Rattus norvegicus [3]) [%]	inhibition in vivo at 10 mg/kg (Rattus norvegicus [4]) [%]	inhibition in vivo at 10 mg/kg (Rattus norvegicus [5]) [%]	Activity (Mus musculus [6]) [%]	Activity (Mus musculus [7]) [%]	Activity (Mus musculus [8]) [%]	Activity (Mus musculus [9]) [%]
CCC(CC)=NNc1nc2ccccc2c(=O)n1-c1cccc(OC)c1	0.51	34	53	48	45	38	66	61	56
CCC/C(C)=N/Nc1nc2ccccc2c(=O)n1-c1cccc(OC)c1	0.58	34	49	47	42	41	68	64	57
COc1cccc(-n2c(NN=C3CCCCC3)nc3ccccc3c2=O)c1	0.61	31	43	40	37	38	53	49	46
COc1cccc(-n2c(N/N=C(\C)c3ccccc3)nc3ccccc3c2=O)c1	0.62	32	45	42	39	36	51	46	44
COc1cccc(-n2c(N/N=C3/C(=O)Nc4ccccc43)nc3ccccc3c2=O)c1		31	40	37	35	36	46	43	39
COc1cccc(-n2c(N/N=C\c3ccccc3)nc3ccccc3c2=O)c1		31	47	38	35	35	47	47	40
COc1cccc(-n2c(N/N=C\c3ccccc3Cl)nc3ccccc3c2=O)c1		27	37	33	29	33	42	39	32
COc1cccc(-n2c(N/N=C\c3ccc(Cl)cc3)nc3ccccc3c2=O)c1		27	37	36	33	34	42	40	34
COc1cccc(-n2c(N/N=C\c3ccccc3[N+](=O)[O-])nc3ccccc3c2=O)c1		27	38	35	35	36	45	41	35
COc1cccc(-n2c(N/N=C\c3ccc([N+](=O)[O-])cc3)nc3ccccc3c2=O)c1		29	37	35	33	36	42	40	35
COc1ccc(/C=N\Nc2nc3ccccc3c(=O)n2-c2cccc(OC)c2)cc1		27	37	35	29	30	41	37	30
COc1cccc(-n2c(N/N=C\c3ccccc3C)nc3ccccc3c2=O)c1		30	42	41	36	34	51	45	39
COc1cccc(-n2c(N/N=C\c3ccc(C)cc3)nc3ccccc3c2=O)c1		28	40	35	32	37	50	48	44
COc1cccc(-n2c(NN=C(c3ccccc3)c3ccccc3)nc3ccccc3c2=O)c1		30	41	38	33	36	49	46	41
CC/C(C)=N/Nc1nc2ccccc2c(=O)n1-c1cccc(OC)c1	0.53	32	46	45	41	37	61	58	53
CC(=O)Oc1ccccc1C(=O)O [ASPIRIN]	1.73								
O=C([O-])Cc1ccccc1Nc1c(Cl)cccc1Cl.[Na+] [DICLOFENAC SODIUM]	1.65	33	39	38	32	33	45	43	37
